In PubChem BioAssay (NCI):
Values joined by “and” are separate entries in the source; they are usually repeats but may differ in a detail not shown here. Equal values may be shown once.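 Grown in 96-well plates, cells were treated for 48 hours with each compound at five concentrations. Insufficient inhibition: endpoint recorded as highest concentration tested. Here, GI50 denotes the concentration required for 50% inhibition of growth. TGI marks complete inhibition of growth.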

Assays:
Assay in all cases: NCI anticancer screen, dose series, 48 h
[1] = tested on: NCI-H460 lung
[2] = tested on: HL-60(TB) leukemia
[3] = tested on: MALME-3M melanoma
[4] = tested on: MCF7 breast
[5] = tested on: SK-OV-3 ovarian
[6] = tested on: M14 melanoma
[7] = tested on: U251 CNS
[8] = tested on: A549 NSCLC
[9] = tested on: SR leukemia
[10] = tested on: HOP-62 NSCLC
[11] = tested on: SNB-19 CNS
[12] = tested on: DU-145 prostate
[13] = tested on: HS 578T breast
[14] = tested on: CAKI-1 renal
[15] = tested on: HCC-2998 colon
[16] = tested on: TK-10 renal
[17] = tested on: OVCAR-5 ovarian
[18] = tested on: LOX IMVI melanoma
[19] = tested on: SW-620 colon
[20] = tested on: UACC-257 melanoma
[21] = tested on: NCI-H522 lung
[22] = tested on: OVCAR-8 ovarian
[23] = tested on: HOP-92 NSCLC
[24] = tested on: UACC-62 melanoma
[25] = tested on: NCI-H226 lung
[26] = tested on: MDA-MB-435
[27] = tested on: A498 renal
[28] = tested on: SF-268 CNS
[29] = tested on: MDA-MB-231 breast

CNC(=O)c1ccccc1Nc1nc(Nc2ccc3c(c2OC)CCC[C@H](N2CCN(CCO)CC2)C3)ncc1Cl
GI50 [1]: 0.892 µM and 0.574 µM | TGI [1]: 13.3 µM and > 10 µM | GI50 [2]: 0.403 µM and 0.305 µM | TGI [2]: 2.04 µM and 2.38 µM | GI50 [3]: 0.875 µM and 1.63 µM | TGI [3]: 3.09 µM and > 10 µM | GI50 [4]: 0.37 µM and 0.374 µM | TGI [4]: 11.2 µM and > 10 µM | GI50 [5]: 2.98 µM and 2.47 µM | TGI [5]: 14.4 µM and 9.23 µM | GI50 [6]: 1.02 µM and 0.51 µM | TGI [6]: 3.44 µM and 2.78 µM | GI50 [7]: 2.43 µM and 2.27 µM | TGI [7]: 13.3 µM and > 10 µM | GI50 [8]: 1.45 µM and 1.44 µM | TGI [8]: 10.2 µM and > 10 µM | GI50 [9]: 0.0449 µM and 0.128 µM | TGI [9]: 1.96 µM and 2.32 µM | GI50 [10]: 2.84 µM and 2.77 µM | TGI [10]: 16.8 µM and > 10 µM | GI50 [11]: 2.85 µM and 6.49 µM | TGI [11]: 14.6 µM and > 10 µM | GI50 [12]: 1.17 µM and 0.888 µM | TGI [12]: 14.8 µM and > 10 µM | GI50 [13]: 2.13 µM and 2.4 µM | TGI [13]: 16.2 µM and > 10 µM | GI50 [14]: 0.69 µM and 1.06 µM | TGI [14]: 13.1 µM and > 10 µM | GI50 [15]: 1.89 µM and 1.56 µM | TGI [15]: 11.5 µM and > 10 µM | GI50 [16]: 2.97 µM and 0.656 µM | TGI [16]: 18.2 µM and > 10 µM | GI50 [17]: 0.656 µM and 0.732 µM | TGI [17]: 15.5 µM and > 10 µM | GI50 [18]: 1.31 µM and 1.09 µM | TGI [18]: 2.77 µM and 2.48 µM | GI50 [19]: 0.863 µM and 0.669 µM | TGI [19]: 11.3 µM and > 10 µM | GI50 [20]: 1.52 µM and 1.29 µM | TGI [20]: 3.87 µM and 3.42 µM | GI50 [21]: 1.89 µM and 1.12 µM | TGI [21]: 10.5 µM and 4.32 µM | GI50 [22]: 4.73 µM and 3.25 µM | TGI [22]: 19.9 µM and > 10 µM | GI50 [23]: 0.154 µM and 0.148 µM | TGI [23]: 1.64 µM and 0.863 µM | GI50 [24]: 1.58 µM and 1.35 µM | TGI [24]: 4.02 µM and 3.39 µM | GI50 [25]: 7.65 µM and 2.57 µM | TGI [25]: 20.8 µM and > 10 µM | GI50 [26]: 1.33 µM and 0.901 µM | TGI [26]: 6.92 µM and > 10 µM | GI50 [27]: 1.38 µM and 2.22 µM | TGI [27]: 3.23 µM and 9.95 µM | GI50 [28]: 3.23 µM and 3.22 µM | TGI [28]: 16.5 µM and > 10 µM | GI50 [29]: 1.34 µM and 1.62 µM | TGI [29]: 3.26 µM and 7.04 µM
